Read-outs that look alike come from different tables or passages of the source.
Tests used:
SK-OV-3 = test: Cytotoxicity assay (cell titer-glo and calcein AM), SK-OV-3; settings: SK-OV-3, % error in parentheses
[1] = test system: mouse mammary normal epithelial control cell line; test: Cytotoxicity assay, normal control cell line
Du145 = test: Cytotoxicity assay (cell titer-glo and calcein AM), Du145; settings: Du145, % error in parentheses
MCF7 = test: Cytotoxicity assay (cell titer-glo and calcein AM), MCF7
SF-268 = test: Cytotoxicity assay (cell titer-glo and calcein AM), SF-268; settings: SF-268, % error in parentheses
ADR-RES = test: Cytotoxicity assay (cell titer-glo and calcein AM), ADR-RES; settings: NCI/ADR RES, % error in parentheses
A549 = test: Cytotoxicity assay (cell titer-glo and calcein AM), A549; settings: A549, % error in parentheses
NCI-H460 = test: Cytotoxicity assay (cell titer-glo and calcein AM), NCI-H460; settings: NCI-H460, % error in parentheses
Hep3B = test: Cytotoxicity assay (cell titer-glo and calcein AM), Hep3B; settings: Hep 3B, % error in parentheses
[2] = read-out: Cytotoxicity IC50, SK-OV-3, CTG, CTG (cell titer-glo) readout
[3] = read-out: Cytotoxicity IC50, SK-OV-3, calcein, calcein AM readout
[4] = read-out: Cytotoxicity IC50, NmuMG, CTG, CTG (cell titer-glo) readout, % error in parentheses
[5] = read-out: Cytotoxicity IC50, NmuMG, calcein, calcein AM readout, % error in parentheses
[6] = read-out: Cytotoxicity IC50, Du145, CTG, CTG (cell titer-glo) readout
[7] = read-out: Cytotoxicity IC50, Du145, calcein, calcein AM readout
[8] = read-out: Cytotoxicity IC50, MCF7, CTG, CTG (cell titer-glo) readout, % error in parentheses
[9] = read-out: Cytotoxicity IC50, MCF7, calcein, calcein AM readout, % error in parentheses
[10] = read-out: Cytotoxicity IC50, SF-268, CTG, CTG (cell titer-glo) readout
[11] = read-out: Cytotoxicity IC50, SF-268, calcein, calcein AM readout
[12] = read-out: Cytotoxicity IC50, NCI/ADR RES, CTG, CTG (cell titer-glo) readout
[13] = read-out: Cytotoxicity IC50, NCI/ADR RES, calcein, calcein AM readout
[14] = read-out: Cytotoxicity IC50, A549, CTG, CTG (cell titer-glo) readout
[15] = read-out: Cytotoxicity IC50, A549, calcein, calcein AM readout
[16] = read-out: Cytotoxicity IC50, NCI-H460, CTG, CTG (cell titer-glo) readout
[17] = read-out: Cytotoxicity IC50, NCI-H460, calcein, calcein AM readout
[18] = read-out: Cytotoxicity IC50, Hep 3B, CTG, CTG (cell titer-glo) readout
[19] = read-out: Cytotoxicity IC50, Hep 3B, calcein, calcein AM readout

Compound: COc1cc2c(c(OC)c1OC)-c1ccc(OC)c(=O)cc1[C@@H](NC(=O)CN(OC)[C@@H]1O[C@H](C(=O)O)[C@@H](O)[C@H](O)[C@H]1O)CC2 [Col15, D-glucuronoside]
- IC50 (SK-OV-3; [2]): 1.07 µM
- IC50 (SK-OV-3; [3]): 2.88 µM
- IC50 [1, 4]: > 5 µM
- IC50 [1, 5]: > 5 µM
- IC50 (Du145; [6]): 1.27 µM
- IC50 (Du145; [7]): 1.64 µM
- IC50 (MCF7; [8]): 0.99 µM
- IC50 (MCF7; [9]): 4.41 µM
- IC50 (SF-268; [10]): 1.17 µM
- IC50 (SF-268; [11]): 1.02 µM
- IC50 (ADR-RES; [12]): 1.66 µM
- IC50 (ADR-RES; [13]): 1.54 µM
- IC50 (A549; [14]): 2.21 µM
- IC50 (A549; [15]): 3.92 µM
- IC50 (NCI-H460; [16]): 1.08 µM
- IC50 (NCI-H460; [17]): 0.96 µM
- IC50 (Hep3B; [18]): 3.28 µM
- IC50 (Hep3B; [19]): 3.44 µM

Compound: COc1cc2c(c(OC)c1OC)-c1ccc(OC)c(=O)cc1[C@@H](NC(=O)CN(OC)[C@@H]1O[C@H](CCl)[C@H](O)[C@H](O)[C@H]1O)CC2 [Col41, 6-deoxy-6-chloro-D-galactoside]
- IC50 (SK-OV-3; [2]): 5.61 µM
- IC50 (SK-OV-3; [3]): 7.95 µM
- IC50 [1, 4]: > 10 µM
- IC50 [1, 5]: 9.27 µM
- IC50 (Du145; [6]): 6.69 µM
- IC50 (Du145; [7]): 6.74 µM
- IC50 (MCF7; [8]): 3.36 µM
- IC50 (MCF7; [9]): 1.85 µM
- IC50 (SF-268; [10]): 6.93 µM
- IC50 (SF-268; [11]): 7.87 µM
- IC50 (ADR-RES; [12]): 4.97 µM
- IC50 (ADR-RES; [13]): 3.68 µM
- IC50 (A549; [14]): 3.7 µM
- IC50 (A549; [15]): 1.07 µM
- IC50 (NCI-H460; [16]): 5.48 µM
- IC50 (NCI-H460; [17]): 2.31 µM
- IC50 (Hep3B; [18]): 8.8 µM
- IC50 (Hep3B; [19]): 5.99 µM

Compound: COc1cc2c(c(OC)c1OC)-c1ccc(OC)c(=O)cc1[C@@H](NC(=O)CN(OC)[C@@H]1O[C@H](CF)[C@@H](O)[C@H](O)[C@H]1O)CC2 [Col54, 6-deoxy-6-fluoro-D-glucoside]
- IC50 (SK-OV-3; [2]): > 10 µM
- IC50 (SK-OV-3; [3]): > 10 µM
- IC50 [1, 4]: > 10 µM
- IC50 [1, 5]: > 10 µM
- IC50 (Du145; [6]): > 10 µM
- IC50 (Du145; [7]): > 10 µM
- IC50 (MCF7; [8]): > 10 µM
- IC50 (MCF7; [9]): > 10 µM
- IC50 (SF-268; [10]): > 10 µM
- IC50 (SF-268; [11]): > 10 µM
- IC50 (ADR-RES; [12]): > 10 µM
- IC50 (ADR-RES; [13]): > 10 µM
- IC50 (A549; [14]): > 10 µM
- IC50 (A549; [15]): > 10 µM
- IC50 (NCI-H460; [16]): 3.82 µM
- IC50 (NCI-H460; [17]): 4.9 µM
- IC50 (Hep3B; [18]): > 10 µM
- IC50 (Hep3B; [19]): 4.66 µM

Compound: COc1cc2c(c(OC)c1OC)-c1ccc(OC)c(=O)cc1[C@@H](NC(=O)CN(OC)[C@@H]1O[C@H](CO)[C@@H](O)C[C@H]1O)CC2 [Col3, 3-deoxy-D-glucoside]
- IC50 (SK-OV-3; [2]): 4.42 µM
- IC50 (SK-OV-3; [3]): 4.21 µM
- IC50 [1, 4]: > 10 µM
- IC50 [1, 5]: > 10 µM
- IC50 (Du145; [6]): > 10 µM
- IC50 (Du145; [7]): 6.56 µM
- IC50 (MCF7; [8]): 3.25 µM
- IC50 (MCF7; [9]): > 10 µM
- IC50 (SF-268; [10]): 5.32 µM
- IC50 (SF-268; [11]): 8.42 µM
- IC50 (ADR-RES; [12]): > 10 µM
- IC50 (ADR-RES; [13]): > 10 µM
- IC50 (A549; [14]): 9.91 µM
- IC50 (A549; [15]): > 10 µM
- IC50 (NCI-H460; [16]): 8.37 µM
- IC50 (NCI-H460; [17]): 1.96 µM
- IC50 (Hep3B; [18]): 5.16 µM
- IC50 (Hep3B; [19]): 4.07 µM

Compound: COc1cc2c(c(OC)c1OC)-c1ccc(OC)c(=O)cc1[C@@H](NC(=O)CN(OC)[C@@H]1O[C@H](CBr)[C@H](O)[C@H](O)[C@H]1O)CC2 [Col42, 6-deoxy-6-bromo-D-galactoside]
- IC50 (SK-OV-3; [2]): 8.36 µM
- IC50 (SK-OV-3; [3]): > 10 µM
- IC50 [1, 4]: 2.83 µM
- IC50 [1, 5]: 2.92 µM
- IC50 (Du145; [6]): 4.47 µM
- IC50 (Du145; [7]): 4.26 µM
- IC50 (MCF7; [8]): 4.9 µM
- IC50 (MCF7; [9]): 3.69 µM
- IC50 (SF-268; [10]): 6.37 µM
- IC50 (SF-268; [11]): 3.31 µM
- IC50 (ADR-RES; [12]): 2.49 µM
- IC50 (ADR-RES; [13]): 2.23 µM
- IC50 (A549; [14]): 3.94 µM
- IC50 (A549; [15]): 2.64 µM
- IC50 (NCI-H460; [16]): 4.4 µM
- IC50 (NCI-H460; [17]): > 10 µM
- IC50 (Hep3B; [18]): > 10 µM
- IC50 (Hep3B; [19]): > 10 µM

Compound: COc1cccc2c1C(=O)c1c(O)c3c(c(O)c1C2=O)C[C@@](O)(C(=O)CO)C[C@@H]3O[C@H]1C[C@H](N)[C@H](O)[C@H](C)O1 [doxorubi]
- IC50 (SK-OV-3; [2]): 0.394 µM
- IC50 (SK-OV-3; [3]): 0.621 µM
- IC50 (Du145; [6]): 0.842 µM
- IC50 (Du145; [7]): 0.339 µM
- IC50 (SF-268; [10]): 0.249 µM
- IC50 (SF-268; [11]): 0.385 µM
- IC50 (ADR-RES; [12]): 0.57 µM
- IC50 (Hep3B; [18]): 0.519 µM
- IC50 (Hep3B; [19]): 0.268 µM

Compound: COc1cc2c(c(OC)c1OC)-c1ccc(OC)c(=O)cc1C(NC(=O)CN(OC)C1OC(C)C(O)C(O)C1O)CC2 [Col37, L-rhamnoside]
- IC50 (SK-OV-3; [2]): 5.58 µM
- IC50 (SK-OV-3; [3]): > 10 µM
- IC50 [1, 4]: 7.72 µM
- IC50 [1, 5]: 7.76 µM
- IC50 (Du145; [6]): 5.81 µM
- IC50 (Du145; [7]): 4.36 µM
- IC50 (MCF7; [8]): 3.81 µM
- IC50 (MCF7; [9]): 1.56 µM
- IC50 (SF-268; [10]): 4.79 µM
- IC50 (SF-268; [11]): 4.68 µM
- IC50 (ADR-RES; [12]): 4.56 µM
- IC50 (ADR-RES; [13]): 4.48 µM
- IC50 (A549; [14]): 7.07 µM
- IC50 (A549; [15]): 7.28 µM
- IC50 (NCI-H460; [16]): 3.72 µM
- IC50 (NCI-H460; [17]): 6.7 µM
- IC50 (Hep3B; [18]): 8.26 µM
- IC50 (Hep3B; [19]): 9.57 µM

Compound: COc1cc2c(c(OC)c1OC)-c1ccc(OC)c(=O)cc1[C@@H](NC(=O)CN(OC)[C@@H]1O[C@H](CO)[C@H](O)[C@H](O)[C@H]1NC(C)=O)CC2 [Col28, N-acetyl-D-galactosaminoside]
- IC50 (SK-OV-3; [2]): 5.18 µM
- IC50 (SK-OV-3; [3]): 7.32 µM
- IC50 [1, 4]: > 10 µM
- IC50 [1, 5]: 9.57 µM
- IC50 (Du145; [6]): > 10 µM
- IC50 (Du145; [7]): > 10 µM
- IC50 (MCF7; [8]): 4.87 µM
- IC50 (MCF7; [9]): 6.67 µM
- IC50 (SF-268; [10]): 5.7 µM
- IC50 (SF-268; [11]): 3.56 µM
- IC50 (ADR-RES; [12]): 9.95 µM
- IC50 (ADR-RES; [13]): > 10 µM
- IC50 (A549; [14]): > 10 µM
- IC50 (A549; [15]): > 10 µM
- IC50 (NCI-H460; [16]): 9.76 µM
- IC50 (NCI-H460; [17]): > 10 µM
- IC50 (Hep3B; [19]): > 10 µM

Compound: COc1cc2c(c(OC)c1OC)-c1ccc(OC)c(=O)cc1[C@@H](NC(=O)CN(OC)[C@@H]1O[C@H](C)[C@@H](O)[C@H](O)[C@H]1O)CC2 [Col2, 6-deoxy-D-glucoside]
- IC50 (SK-OV-3; [2]): 9.86 µM
- IC50 (SK-OV-3; [3]): > 10 µM
- IC50 [1, 4]: > 10 µM
- IC50 [1, 5]: > 10 µM
- IC50 (Du145; [6]): > 10 µM
- IC50 (Du145; [7]): > 7.79 µM
- IC50 (MCF7; [8]): 4.86 µM
- IC50 (MCF7; [9]): 4.77 µM
- IC50 (SF-268; [10]): 8.43 µM
- IC50 (SF-268; [11]): > 10 µM
- IC50 (ADR-RES; [12]): > 10 µM
- IC50 (ADR-RES; [13]): > 10 µM
- IC50 (A549; [14]): 8.78 µM
- IC50 (A549; [15]): 7.94 µM
- IC50 (NCI-H460; [16]): 7.24 µM
- IC50 (NCI-H460; [17]): 5.42 µM
- IC50 (Hep3B; [18]): > 10 µM
- IC50 (Hep3B; [19]): > 10 µM

Compound: COc1cc2c(c(OC)c1OC)-c1ccc(OC)c(=O)cc1[C@@H](NC(C)=O)CC2 [Col]
- IC50 (SK-OV-3; [2]): > 10 µM
- IC50 (Du145; [6]): > 10 µM
- IC50 (Du145; [7]): 4.67 µM
- IC50 (SF-268; [10]): > 10 µM
- IC50 (SF-268; [11]): > 10 µM
- IC50 (ADR-RES; [12]): > 10 µM
- IC50 (ADR-RES; [13]): 6.32 µM
- IC50 (Hep3B; [18]): > 10 µM
- IC50 (Hep3B; [19]): 9.38 µM

— patent US20130012466A1 (priority 2006, published 2013)
